# Patent US20250275976A1, “Methods of Treating Neuroinflammatory Conditions” (Athira Pharma, Inc., priority 2022, published 2025)
# Where two headings read alike, the source gives them in different places.
# Key:
# [1] = tested on: primary culture of both cortical neurons and microglia; assay: Microglial activation (Iba1 area) after Aβ1-42 challenge; format: cell-based; details: 5 ng/ml; 15 min Pre-Aβ challenge
# [2] = tested on: THP-1-differentiated macrophages; assay: Pro-inflammatory cytokines in supernatants of LPS-challenged THP-1-differentiated macrophages; format: cell-based, human; set-up: key to Significant reduction in pro-inflammatory cytokine expression: IL-6 / Significant reduction in pro-inflammatory cytokine expression: TNF-α / Significant reduction in pro-inflammatory cytokine expression: IL-1β: “NS” indicates a non-significant reduction in the indicated cytokine; “+” indicates a p value <0.05 in Tukey post test; “++” indicates a p value <0.01 in Tukey post test; details: for Significant reduction in pro-inflammatory cytokine expression: IL-1β / Significant reduction in pro-inflammatory cytokine expression: IL-6 / Significant reduction in pro-inflammatory cytokine expression: TNF-α: LPS 24 hrs
# Text: Neuroinflammation plays a crucial role in disease progression and is a complex phenomenon involving various cells that affect many extra- and intracellular signaling pathways and cytokine production. The macrophage of the brain (microglia) is the main agent of innate immunity in the CNS and performs various functions, including neuroprotection, in response to inflammatory signals. Activated microglia participate in developing neuroinflammation, responding to toxic exogenous substances (like LPS) or endogenous substances (like amyloid-beta). Here, THP-1 cells were used as an in-vitro cell model to evaluate mechanisms relevant to CNS inflammation. Differentiation with phorbol-12-myristate-13-acetate (PMA) causes THP-1 monocyte cells to acquire functional and morphological resemblance to macrophages. LPS interacts with THP-1 differentiated macrophage through the toll-like receptor 4, triggering the inflammatory response and stimulating pro-inflammatory cytokine release and eventually leading to cellular death. Test compounds were investigated for whether they have anti-inflammatory effects on LPS-challenged macrophage cultures. THP-1-differentiated macrophages were treated with test compounds for 20 minutes, followed by 24 hrs of LPS challenge. Culture supernatants were then collected to analyzed for the presence of pro-inflammatory cytokines: interleukin 1β (IL--1β), interleukin 6 (IL-6) and tumor necrosis factor α (TNF-α).
# Cytokine quantification in cell culture supernatants was accomplished by homogeneous time resolved fluorescence (HTRF) kits to assess levels of IL-1β (Human IL-1β kit, #62HIL1BPEG, Cisbio) and IL-6 (Human IL-6 kit, 62HILO6PET, Cisbio), and by ELISA (Human TNF-α ELISA kit, KHC3011, ThermoFisher) to determine the levels of TNF-α.
# Data analysis was performed via 1-way ANOVA with Tukey post-test compared to LPS treatment cultures using Prism statistical software (GraphPad). Tabular data indicates significance of reduction in culture supernatants for the indicated analyte at the indicated dose.
# [3] = tested on: Prp-TDP43^A315T mice; format: in vivo
# Experimental: Extranuclear accumulation of TDP-43 protein is a pathological hallmark of a number of neurological diseases. […] Male Prp-TDP43^A315T mice (N=10 mice per group) at 3 weeks of age were administered daily treatments of test compounds. Compound A19 was administered via subcutaneous injection, and Compound 5a and Compound 6a were administered via oral gavage. After 2 months of treatment, plasma samples were collected for cytokine quantification. […] Plasma IL-6 and TNF-α cytokine expression levels were determined using the ELISA method. The submandibular vein was punctured with a lancet and a blood drop was collected directly on a microtube containing EDTA as anticoagulant. Samples were centrifuged for 15 minutes at 1000×g at 4° C. within 20 minutes of collection. 20 μl of plasma supernatant was stored at −20° C. before ELISA analysis.
# Plasma was diluted at 1:10 in sterile PBS, and IL-6 and TNF-α quantification was performed in duplicate for each animal using 10 μl of sample per well in 96-well plates using the ELISA method (IL-6: Signa-Aldrich Cat #RAB0308, TNF-α: Sigma-Aldrich Cat #RAB0477). Statistical analysis was carried out by 2-way ANOVA with Dunnett's multiple comparisons post-test with compound-treated samples compared to vehicle-treated samples.
# [4] = tested on: Rat primary cortical neuron cultures; details: LPS 24 h
# Experimental: (§1) To assess the neuroprotective effect of compound treatment against inflammatory insult, primary cultured cortical neurons were subjected to lipopolysaccharide (LPS) treatment for 24h along with various compound doses of compounds of Formula (I) or Compound A19. […] Rat primary cortical neuron cultures were grown at 37° C., 5% C02 in Complete Neurobasal Medium supplemented with B27/GDNF/BDNF containing 10% FBS until maturity. 25 μl of culture volume were seeded in a 384-well plate at 5,000 cells/well, and treated with 1 μM, 100 nM, 10 nM, 1 nM, or 0.1 nM of test compound for 15 minutes. Cells were then subjected to 1 μM LPS challenge for 24 hours. Luminescence measurements to assess relative levels of ATP were performed on an Envision plate reader (Perkin Elmer). Data for DMSO control were set to 100% cell viability, and each group (n=4) were averaged and presented as mean±SEM.
# [5] = tested on: Rat primary cortical neuron cultures; assay: Neuroprotection of rat cortical neurons against LPS challenge (Cell Titer-Glo); details: at at least one dose tested
# Experimental: as §1
# [6] = 2 months of treatment, doses as in the value
compound,measurement,setting,value
"HGF: Hepatocyte growth factor, 5 ng/ml treatment in the microglia culture","Significant decrease in Iba1 area, compared to vehicle treated (Aβ challenge)",[1],+ (“+” indicates a p value < 0.05 in Fisher's LSD post-test compared to Aβ challenged)
CCC(C)CN1CC2N(Cc3ccc(OC(F)F)cc3)CCC(=O)N2[C@@H](C)C1=O (some centres unmarked) [Compound 6a],Expression of IL-1β and TNF-α (result in words),[2]; at at least one tested dose,significantly reduced
same,Significant reduction in pro-inflammatory cytokine expression: IL-1β,[2]; dose 0.1 nM,NS
same,Significant reduction in pro-inflammatory cytokine expression: IL-6,[2]; dose 0.1 nM,NS
same,Significant reduction in pro-inflammatory cytokine expression: TNF-α,[2]; dose 0.1 nM,NS
same,Significant reduction in pro-inflammatory cytokine expression: IL-1β,[2]; dose 10 nM,NS
same,Significant reduction in pro-inflammatory cytokine expression: IL-6,[2]; dose 10 nM,NS
same,Significant reduction in pro-inflammatory cytokine expression: TNF-α,[2]; dose 10 nM,NS
same,Significant reduction in pro-inflammatory cytokine expression: IL-1β,[2]; dose 1000 nM,+ (“+” indicates a p value <0.05 in Tukey post test)
same,Significant reduction in pro-inflammatory cytokine expression: IL-6,[2]; dose 1000 nM,NS
same,Significant reduction in pro-inflammatory cytokine expression: TNF-α,[2]; dose 1000 nM,+ (“+” indicates a p value <0.05 in Tukey post test)
same,Significant decrease in plasma cytokine expression after 2 months of treatment: IL-6,[3]; 10 mg/kg PO daily,++++ (++++ = p < 0.0001)
same,Significant decrease in plasma cytokine expression after 2 months of treatment: TNF-α,[3]; 10 mg/kg PO daily,++++ (++++ = p < 0.0001)
same,Significant decrease in plasma cytokine expression after 2 months of treatment: IL-6,[3]; 20 mg/kg PO daily,++++ (++++ = p < 0.0001)
same,Significant decrease in plasma cytokine expression after 2 months of treatment: TNF-α,[3]; 20 mg/kg PO daily,++++ (++++ = p < 0.0001)
same,Plasma IL-6 expression (result in words),[3]; [6],significantly reduced expression of both cytokines at doses of 10 and 20 mg/kg
same,Plasma TNF-α expression (result in words),[3]; [6],significantly reduced expression of both cytokines at doses of 10 and 20 mg/kg
same,Significance of neuroprotection vs 1 uM LPS,[4]; dose 0.1 nM,+++ (+++ indicates p<0.001)
same,Significance of neuroprotection vs 1 uM LPS,[4]; dose 1 nM,+++ (+++ indicates p<0.001)
same,Significance of neuroprotection vs 1 uM LPS,[4]; dose 10 nM,+++ (+++ indicates p<0.001)
same,Significance of neuroprotection vs 1 uM LPS,[4]; dose 100 nM,+++ (+++ indicates p<0.001)
same,Significance of neuroprotection vs 1 uM LPS,[4]; dose 1 μM,+++ (+++ indicates p<0.001)
same,Protection of primary neurons from LPS-stimulated inflammatory toxicity (in words),[5],protected primary neurons from LPS-stimulated inflammatory toxicity
